Data: ChEMBL document CHEMBL1130070, “Zinc ejection as a new rationale for the use of cystamine and related disulfide-containing antiviral agents in the treatment of AIDS” (J Med Chem, 1997)

What follows are compounds tested on CEM-SS (assay: Antiviral activity against HIV-1 in CEM-SS cells using […] assay). Conditions: Homo sapiens; call rule not given here.
Assay type: functional, cell-based

SMILES | IC50 | EC50
C/C(=C(\CCO)SS/C(CCO)=C(/C)N(C=O)Cc1cnc(C)nc1N)N(C=O)Cc1cnc(C)nc1N | 535 µM | 
NCCSSCCN [CYSTAMINE] | 172 µM | 56.2 µM
NCCS [CYSTEAMINE] | 71 µM | 41.6 µM
CCN(CC)C(=S)SSC(=S)N(CC)CC [DISULFIRAM] | 3.9 µM | 
CCN(CC)C(=S)S [DITIOCARB] | > 100 µM | 

Each compound was assayed on CEM-SS (assay: Antiviral activity against HIV-1ADA in […]). Conditions: Homo sapiens.
Assay type: functional, cell-based

SMILES | IC50 | EC50
C/C(=C(\CCO)SS/C(CCO)=C(/C)N(C=O)Cc1cnc(C)nc1N)N(C=O)Cc1cnc(C)nc1N | > 100 µM | 
NCCSSCCN [CYSTAMINE] | > 100 µM | 4.3 µM
NCCS [CYSTEAMINE] | > 100 µM | 53.7 µM
CCN(CC)C(=S)SSC(=S)N(CC)CC [DISULFIRAM] | > 100 µM | 
CCN(CC)C(=S)S [DITIOCARB] | > 100 µM | 

What follows are compounds tested on CEM-SS (assay: Antiviral activity against HIV-1ADA in […]; I = No antiviral activity). Conditions: not given.
Assay type: functional, cell-based, Homo sapiens

SMILES | EC50
C/C(=C(\CCO)SS/C(CCO)=C(/C)N(C=O)Cc1cnc(C)nc1N)N(C=O)Cc1cnc(C)nc1N | Not Active
CCN(CC)C(=S)SSC(=S)N(CC)CC [DISULFIRAM] | Not Active
CCN(CC)C(=S)S [DITIOCARB] | Not Active

What follows are compounds tested on Human immunodeficiency virus 1 (assay: Compound was tested for binding of HIV-1 to CEM-ss cells; NI = No inhibition). Conditions: not given.
Assay type: functional, organism-based

SMILES | I50
C/C(=C(\CCO)SS/C(CCO)=C(/C)N(C=O)Cc1cnc(C)nc1N)N(C=O)Cc1cnc(C)nc1N | Not Active
NCCSSCCN [CYSTAMINE] | Not Active
NCCS [CYSTEAMINE] | Not Active
CCN(CC)C(=S)SSC(=S)N(CC)CC [DISULFIRAM] | Not Active
CCN(CC)C(=S)S [DITIOCARB] | Not Active

Each compound was assayed on CEM-SS (assay: Antiviral activity against HIV-1 in CEM-SS cells using […] assay; I = No antiviral activity). Conditions: not given.
Assay type: functional, cell-based, Homo sapiens

SMILES | EC50
C/C(=C(\CCO)SS/C(CCO)=C(/C)N(C=O)Cc1cnc(C)nc1N)N(C=O)Cc1cnc(C)nc1N | Not Active
CCN(CC)C(=S)SSC(=S)N(CC)CC [DISULFIRAM] | Not Active
CCN(CC)C(=S)S [DITIOCARB] | Not Active

Each compound was assayed against Human immunodeficiency virus type 1 reverse transcriptase (Human immunodeficiency virus 1, UniProt Q72547) (assay: Compound was tested for the effect on HIV-1 Reverse Transcriptase; NI = No inhibition). Conditions: not given.

SMILES | I50
C/C(=C(\CCO)SS/C(CCO)=C(/C)N(C=O)Cc1cnc(C)nc1N)N(C=O)Cc1cnc(C)nc1N | Not Active
NCCSSCCN [CYSTAMINE] | Not Active
NCCS [CYSTEAMINE] | Not Active
CCN(CC)C(=S)SSC(=S)N(CC)CC [DISULFIRAM] | Not Active
CCN(CC)C(=S)S [DITIOCARB] | Not Active

Each compound was assayed against Human immunodeficiency virus type 1 protease (Human immunodeficiency virus 1, UniProt Q72874) (assay: Compound was tested for effects on HIV-1 protease; NI = No inhibition). Conditions: not given.

SMILES | I50
C/C(=C(\CCO)SS/C(CCO)=C(/C)N(C=O)Cc1cnc(C)nc1N)N(C=O)Cc1cnc(C)nc1N | Not Active
NCCSSCCN [CYSTAMINE] | Not Active
NCCS [CYSTEAMINE] | Not Active
CCN(CC)C(=S)SSC(=S)N(CC)CC [DISULFIRAM] | Not Active
CCN(CC)C(=S)S [DITIOCARB] | Not Active
